The source of these data is patent publication US20240197728A1, “METHODS AND PHARMACEUTICAL COMPOSITIONS FOR TREATING REFRACTORY EPILEPSY” (INSERM (INSTITUT NATIONAL DE LA SANTÉ ET DE LA RECHERCHE …, priority 2021, published 2024).

For one series, the system named is KCC2. The series can be described thus: Immunoprecipitation/immunoblot of KCC2 phosphorylation and expression in hippocampo-cortical slices. The class given is cell-based, rat. Here is the method:
(§1) For all experiments on hippocampal cultures, neurons were pre-incubated for 2 hours with either DMSO, PCPZ or CLP257 in a CO2 incubator set at 37° C. Drugs were added directly to the culture medium. For electrophysiology experiments, neurons were also recorded in presence of these drugs in the bath. For biochemistry experiments on rat hippocampo-cortical slices, slices were incubated with either DMSO (vehicle), CLP257, PCPZ, WNK463 or sodium orthovanadate for 2 hours in interface chambers set at 37° C. For human tissue experiments, slices were pre-incubated with either DMSO, CLP257 or PCPZ for 2 hours in interface chambers set at 37° C. and then also recorded in presence of these compounds.
(§2) 8-weeks old Sprague Dawley male rats were anesthetized by intraperitoneal ketamine/xylazine injection (120/10 mg/kg) and perfused transcardially with ice-cold (0-4° C.), oxygenated solution (O2/CO2 95/5%), containing (in mM): N-methyl-d-glucamine 93, KCl 2.5, NaH2PO4 1.2, NaHCO330, HEPES 20, D-glucose 20, ascorbic acid 5, sodium pyruvate 3, MgSO4 10 and CaCl2) 0.5 (300-310 mOsm, pH7.4). Brains were removed and transverse hippocampo-cortical slices (400 m thick) were prepared in the same solution using a vibratome (HM650V, Microm). Slices were then incubated for 2-hours with DMSO, the KCC2 enhancers (CLP257, PCPZ, WNK43) or sodium orthovanadate in an interface chamber containing artificial cerebrospinal fluid (ACSF) composed of (in mM): D-glucose 10, KCl 3.5, NaHOC3 26, NaH2PO4 1.25, NaCl 126, CaCl2) 1.6 and MgCl2 1.2 (290 mOsm), equilibrated with 5% CO2 in 95% 02. After the treatments, slices were washed with cold PBS, instantaneously frozen with liquid nitrogen and stored at −80° C.
(§3) Slices were mechanically lysed on ice, using a 2 mL Dounce, in a buffer containing (in mM): Tris/HCl, pH 7.5 50, EGTA 1, EDTA 1, sodium orthovanadate 1, sodium-B-glycerophosphate 10, sodium fluoride 50, sodium pyrophosphate 5, sucrose 270, benzamidine 1, phenylmethylsulfonyl fluoride 2, Triton […], (v/v) 2-mercaptoethanol 0.1% and protease inhibitors (Roche). After complete homogenization, samples were centrifuged (16,000×g at 4° C. for 10 min) and the supernatant was collected. Protein quantification was done using Pierce BCA Protein Assay kit (Thermo Scientific) with BSA as standard.
The following phosphorylation site-specific antibodies: anti-KCC3A phospho Thr1048 (0.35 mg/ml, sheep, [S0961C] 1st bleed, Dundee), anti-KCC3A phospho Thr 991 (0.26 mg/ml, sheep, [S959C] 1st bleed, Dundee) were first incubated for 30 min at 4° C. with the corresponding non-phosphorylated peptide (10 mg/ml, Dundee).
Phospho-antibodies or anti-KCC2 antibodies (07-432; Millipore) were then coupled with protein-G-Sepharose (4 Fast Flow; Sigma-Aldrich) at a ratio of […] of antibody per 100 μl of beads, for 2 h at 4° C. without agitation. 1.5 mg of clarified cell lysate was incubated with the antibody-coupled bead suspension, overnight at 4° C. under gentle agitation. The supernatant was collected after centrifugation and beads were washed twice with NaCl solution (0.25M NaCl in 1×PBS) and twice with PBS alone. Bound proteins were eluted with 2×LDS sample buffer (Invitrogen) containing 0.5% (v/v) 2-mercaptoethanol and denaturated at 75° C. for 20 min (IP with phospho-antibodies) or 37° C. for 1 h (IP with anti-KCC2 antibodies) before centrifugation (13,000×g at 4° C. for 15-20 min).
Samples were subjected to electrophoresis on polyacrylamide gradient gels (4-12% bis-tris gels) and transferred to nitrocellulose membranes. Membranes were rinsed with TBS-tween solution (TBST; Invitrogen) and blocked with 5% (w/v) skim milk. The membranes were then immunoblotted in 5% (w/v) skim milk in TBST with a primary antibody against KCC2 (rabbit, 07-432; Millipore; 1:1000), or phosphotyrosine (mouse, clone 4G10, Millipore, 1:1000), and a mouse primary antibody against neuron-specific beta-III tubulin overnight at 4° C. (clone 2G10; T8578; Sigma-Aldrich; 1:1000). […]

Another series concerns SPAK. The series can be described thus: Immunoblot of SPAK phosphorylation and expression in hippocampo-cortical slices. The class given is cell-based, rat. Conditions: 10 μM WNK463, 2 h; vs DMSO. As for the experimental part: as §1, §2, §3
Samples were subjected to electrophoresis on polyacrylamide gradient gels (4-12% bis-tris gels) and transferred to nitrocellulose membranes. Membranes were rinsed with TBS-tween solution (TBST; Invitrogen) and blocked with 5% (w/v) skim milk. […] Fluorescence was detected and the relative intensities of immunoblot bands were determined using Odyssey infrared imaging system (LI-COR Bioscience). […]
Background: In western blotting, separated proteins are transferred to a membrane and probed.

A further series relates to OSR1. The series can be described thus: Immunoblot of OSR1 phosphorylation and expression in hippocampo-cortical slices. Conditions: 10 μM WNK463, 2 h; vs DMSO. Type of series: cell-based, rat. Here is the method:
as §1, §2, §3
Samples were subjected to electrophoresis on polyacrylamide gradient gels (4-12% bis-tris gels) and transferred to nitrocellulose membranes. Membranes were rinsed with TBS-tween solution (TBST; Invitrogen) and blocked with 5% (w/v) skim milk. The membranes were then immunoblotted in 5% (w/v) skim milk in TBST with a primary antibody against KCC2 (rabbit, 07-432; Millipore; 1:1000), or phosphotyrosine (mouse, clone 4G10, Millipore, 1:1000), and a mouse primary antibody against neuron-specific beta-III tubulin overnight at 4° C. (clone 2G10; T8578; Sigma-Aldrich; 1:1000). They were then washed three times with distillated water, three times with TBST-milk solution and incubated for one hour at RT with goat secondary antibodies anti-rabbit IRDye 800 (1:3000; LI-COR), goat anti-mouse IRDye 700 (1:3000; LI-COR) or donkey anti-sheep DyLight 800 (1:3000; Rockland). Membranes were then washed again with TBST three times and one time with TBS. Fluorescence was detected and the relative intensities of immunoblot bands were determined using Odyssey infrared imaging system (LI-COR Bioscience). […]

For series [1], the system named is spontaneous interictal-like discharges (IIDs) in slices from mTLE patients. The series can be described thus: Multielectrode array recording of postoperative hippocampal-subicular slices from mTLE patients. The class given is cell-based, human. Conditions: 10 μM bumetanide, >10 min application. As for the experimental part:
as §1
Patients or their legal guardians gave informed consent to participate in the study. Patients ([…], 3 males, 4 female, age range: 16-54 years) diagnosed with mesial temporal lobe epilepsy with hippocampal sclerosis underwent multimodal preoperative neurological, neurophyschological and psychiatric evaluations as well as video-electroencephalographic recording, magnetic resonance imaging and fluorodeooxyglugose positron emission tomography. Cortectomies were performed at Sainte-Anne Hospital by neurosurgeons B. Devaux and B. Turak and at Pitié-Salpêtriére Hospital by neurosurgeons S. Clemenceau and B. Mathon. Cortical specimens collected in the operating room were immediately transported in ice-cold (0-4° C.), oxygenated solution (O2/CO2 95/5%), containing (in mM): N-methyl-d-glucamine 93, KCl 2.5, NaH2PO4 1.2, NaHCO3 30, HEPES 20, D-glucose 20, ascorbic acid 5, sodium pyruvate 3, MgSO4 10 and CaCl2 0.5 (300-310 mOsm, pH7.4) and transported within 15 minutes to the laboratory. Transverse hippocampal-subicular slices (400 m thick) were prepared in the same solution using a vibratome (HM650V, Microm). They were maintained for 20-30 minutes at 37° C. and then at room temperature in an interface chamber containing artificial cerebrospinal fluid (ACSF) composed of (in mM): D-glucose 10, KCl 3.5, NaHOC3 26, NaH2PO4 1.25, NaCl 126, CaCl2 1.6 and MgCl2 1.2 (290 mOsm), equilibrated with 5% CO2 in 95% 02.
Multielectrode array recordings were performed using a MEA2100 station (Multi Channel Systems) equipped with a 120-microelectrode array chamber (custom 12×10 layout, 30 μm TiN electrodes spaced 1 mm vertical and 1.5 mm horizontal). Slices were maintained in the recording chamber using a home-made platinum-nylon harp and superfused with pre-warmed (37° C.) oxygenated ACSF at a rate of 6 ml/min. Slices were imaged using a video-microscope table (MEA-VMT1, Multi Channel Systems) in order to register the location of electrodes with respect to the slice. Extracellular signals were acquired at a sampling rate of 10 kHz using Multi Channel Experimenter (Multi Channel Systems) and analyzed offline using homemade software (Matlab, The Mathworks).

The target in a further series is T1, NKCC1 (Homo sapiens, UniProt P55011).
T1 sequence (P55011 1-1212): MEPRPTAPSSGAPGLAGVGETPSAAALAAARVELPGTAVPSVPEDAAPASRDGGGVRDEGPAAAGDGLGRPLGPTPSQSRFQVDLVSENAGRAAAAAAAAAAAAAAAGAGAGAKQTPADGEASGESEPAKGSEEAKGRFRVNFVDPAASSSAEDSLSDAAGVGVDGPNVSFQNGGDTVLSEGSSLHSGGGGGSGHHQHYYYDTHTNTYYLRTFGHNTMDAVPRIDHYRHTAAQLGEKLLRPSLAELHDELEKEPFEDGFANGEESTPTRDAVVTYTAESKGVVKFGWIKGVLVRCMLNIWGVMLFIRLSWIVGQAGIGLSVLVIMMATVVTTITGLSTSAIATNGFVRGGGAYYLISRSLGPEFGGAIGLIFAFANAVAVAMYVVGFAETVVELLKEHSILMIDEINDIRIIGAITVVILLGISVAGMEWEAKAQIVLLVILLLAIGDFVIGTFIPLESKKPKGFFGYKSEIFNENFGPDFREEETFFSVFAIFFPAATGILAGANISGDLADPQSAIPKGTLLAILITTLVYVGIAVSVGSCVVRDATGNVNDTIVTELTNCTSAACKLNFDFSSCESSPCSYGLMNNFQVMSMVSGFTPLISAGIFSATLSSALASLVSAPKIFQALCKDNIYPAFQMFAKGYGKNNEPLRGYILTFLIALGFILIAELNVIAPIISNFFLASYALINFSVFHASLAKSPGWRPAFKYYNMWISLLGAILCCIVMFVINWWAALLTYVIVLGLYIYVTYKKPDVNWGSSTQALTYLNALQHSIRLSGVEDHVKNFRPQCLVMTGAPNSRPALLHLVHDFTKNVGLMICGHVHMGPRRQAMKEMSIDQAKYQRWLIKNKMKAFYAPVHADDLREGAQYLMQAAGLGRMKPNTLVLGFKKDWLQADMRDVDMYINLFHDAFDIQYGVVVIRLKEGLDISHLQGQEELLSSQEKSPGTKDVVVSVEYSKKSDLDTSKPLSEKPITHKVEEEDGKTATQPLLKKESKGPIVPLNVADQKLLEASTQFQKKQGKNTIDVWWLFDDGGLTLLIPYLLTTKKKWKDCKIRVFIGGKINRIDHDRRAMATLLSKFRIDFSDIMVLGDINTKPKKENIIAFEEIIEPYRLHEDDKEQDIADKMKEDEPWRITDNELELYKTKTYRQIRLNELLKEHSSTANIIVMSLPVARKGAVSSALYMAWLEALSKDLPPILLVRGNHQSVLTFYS
The following applies: NEMO trial, neonatal seizures; cited from earlier work.

For `CC(C)(C)NC(=O)c1cncn1C1CCN(c2ccc(-c3nnc(C(F)(F)F)o3)cn2)CC1` [WNK463], in the series on KCC2 (10 μM WNK463, 2 h, slices, vs DMSO), the “change of total KCC2 expression” value was −7.64±13.00%. In the series with KCC2 (10 μM WNK463, 2 h, vs DMSO), the “change of KCC2 phosphorylation at S940” value is listed as −14.40±4.67%, the “change of KCC2 phosphorylation at T906” value is −13.70±12.5% and the “change of KCC2 phosphorylation at T1007” value is −78.702±3.27%. Besides, the “change of SPAK phosphorylation (S327)” value with SPAK was −84.10±4.57%. Moreover, the “change of OSR1 phosphorylation (S325)” value with OSR1 is −81.00±5.56%.

For the compound `CCCCNc1cc(C(=O)O)cc(S(N)(=O)=O)c1Oc1ccccc1` [bumetanide], the “slices in which the amplitude of IIDs was reduced or IIDs abolished” value in series [1] is reported as 3 of 4. Also, at NKCC1, the “hearing loss in surviving patients” value is recorded as 3/11.

For `[Na+].[Na+].[Na+].[O]=[V]([O-])([O-])[O-]` [sodium orthovanadate], the “change of tyrosine phosphorylation of KCC2” value in the series with KCC2 (sodium orthovanadate 200 μM in H2O (FIG. 4 legend), 2 h) is listed as “+89.10±45.40%”.
